One experiment has as its system S. aureus strain RN4220. The experiment in a line: MIC determination, wildtype strain RN4220 (96-well dilution series, Mueller-Hinton broth). Format: cell-based, Staphylococcus aureus. To be noted: for MIC: Staphylococcus aureus, RN4220. How it is done: (§1) The majority of mutants were obtained by selection of the S. aureus strain RN4220 on agar plates in presence of an antibiotic. Briefly, the minimal inhibitory concentration (“MIC”) of the wildtype strain RN4220 was determined. For this purpose a liquid culture with an OD of 0.5 was added as a dilution of 1:100 in Mueller-Hinton broth to each well of a 96-well plate containing a dilution series of a certain antibiotic. The 96-well plate was incubated at 37° C. overnight. The lowest antibiotic concentration where no growth of bacteria could be determined is defined as the MIC value of this strain.

In experiment [1] the test system is strains NRS106, NRS107, NRS128 and NRS129. The experiment in a line: MIC determination, mutants purchased from NARSA. Format: cell-based, Staphylococcus aureus. To be noted: for MIC: Staphylococcus aureus, read-out: MIC of the mutant. The procedure: Four strains from NARSA (Network on Antimicrobial Resistance in Staphylococcus aureus) could be purchased. The strains NRS106, NRS107, NRS128 and NRS129 show resistances against the antibiotics gentamicin, mupirocin, erythromycin and chloramphenicol.
as §1

The subject of experiment [2] is mutants obtained by selection of the S. aureus strain RN4220. The experiment can be described thus: MIC determination, mutants obtained by selection on antibiotic agar. Format: cell-based, Staphylococcus aureus. The settings on record: for MIC: Staphylococcus aureus, read-out: MIC of the mutant; for MIC of the mutant: Table 1, mutant resistant to the antibiotic of the same line. The procedure:
as §1
To select first-step mutants agar plates containing an antibiotic concentration of 0.5×-, 1×-, 2×-, 3×- and 5×MIC were prepared and approximately 1×10^8 cells were plated and incubated overnight. Colonies grown on the plate with the highest antibiotic concentration were subcultured in liquid MH-media containing the same concentration of antibiotic to avoid loss of resistance. This culture was used to prepare a 25% glycerol stock that is stored at −80° C. To test the stability of resistance each strain was subcultured again either in presence of an antibiotic or in media without any antibiotics. After that both cultures were plated on agar plates. In case of a stable mutation that leads to the resistance no difference in growth behavior of the liquid culture or the cultures plated on agar plates should be noticed. The MIC of the mutants was determined.
After the successful selection of eight first-step mutants the experiment was repeated in a same manner as described above to obtain mutants having a resistance to much higher concentration of antibiotic. With the exception of the actinomycin D mutant, additional mutants were obtained. Again the MIC-values for the new mutants were determined.

For experiment [3], the system named is ten strains of Staphylococcus aureus, each resistant to a different, known, antibiotic. The experiment can be described thus: Small scale experiment: panel of ten resistant strains in a microplate. Format: cell-based. To be noted: Example 1, FIG. 1. The procedure:
In a small scale experiment, ten strains of Staphylococcus aureus, each resistant to a different, known, antibiotic, were generated. These strains were added to the wells of a microplate. […] Thus, it was determined that each strain of Staphylococcus aureus was resistant to at least one of ten known antibiotics (FIG. 1).
In this way, it was shown that linezolid was not part of the initial set of ten antibiotics. In other words, the panel of ten Staphylococcus aureus strains used allowed dereplication of the ten antibiotics with no need for analytical chemistry. This experiment establishes that the panel of ten strains can be scaled up to several thousand strains, which will be collectively resistant to as many known antibiotics, and screen sources of unknown compounds (e.g., microbial or eukaryotic cell spent media, cell and tissue extracts, combinatorial libraries, etc.). Using such a large scale screen allows identification of a source containing an antimicrobial activity that is unique from the thousands of known antibiotics, and thus a likely source of a novel antibiotic. Similarly, and using either microbial spent media or individual compounds from chemical libraries, a search can be performed for novel compounds with anticancer, anti-inflammatory, or other desired properties.

The mark [4] stands for this setting: Table 2, read-out: MIC of wilcitype RN4220.
Setting [5] is: Table 1, 37° C. overnight, read-out: MIC of wildtype RN4220.

Data on 13 compounds can be found in patent US9994890B1, “Methods of natural product drug discovery” (priority 2012, dated 2018).

Where two headings read alike, the source gives them in different places. Starred links: 1 amine or outer side, 2 acyl side, 3 side chain; linkers in the order of their positions; H or OH if unused. Positions of bridges follow the written chain, without caps; N, C: chain ends. Non-standard residues stand in square brackets, D forms with d. Residues, ends and D or L forms follow the SMILES beside them. Chains are numbered I, II in the order given. Actinocin(9to1) = Cc1c2oc3c(C)ccc(C(=O)[*:1])c3nc-2c(C(=O)[*:2])c(N)c1=O; NMeV = CN[C@H](C(=O)O)C(C)C; Sar = CNCC(=O)O

What is called MIC is the lowest concentration found to suppress growth.

On to `O=C(N[C@H](CO)[C@H](O)c1ccc([N+](=O)[O-])cc1)C(Cl)Cl` [Chloramphenicol], for which the MIC is 62.5 µg/mL with S. aureus strain RN4220 (setting [4]) and 12.5 µg/mL in experiment [1].

On to `C/C(=C\C(=O)OCCCCCCCCC(=O)O)C[C@@H]1OC[C@H](C[C@@H]2O[C@H]2[C@@H](C)[C@H](C)O)[C@@H](O)[C@H]1O` [Mupirocin], for which the MIC in the experiment with S. aureus strain RN4220 (setting [4]) was found to be 500 µg/mL; in experiment [1] it was 25 µg/mL.

Gentamicin: the “MIC of wilcitype RN4220” value with S. aureus strain RN4220 (Table 2) was 250 µg/mL. Also, the “MIC of the mutant” value in experiment [1] (Table 2, NARSA strain named in the same line) was 0.8 µg/mL.

As for `CC1COc2c(N3CCN(C)CC3)c(F)cc3c(=O)c(C(=O)O)cn1c23` (centres unmarked) [Ofloxacin], the figures for the MIC (in experiment [2]; with S. aureus strain RN4220 (setting [5])) were 1.5 µg/mL and 0.4 µg/mL, respectively.

Consider `[H]/N=C(/N)N[C@H]1[C@H](O)[C@@H](O)[C@H](O[C@@H]2O[C@@H](C)[C@](O)(C=O)[C@H]2O[C@@H]2O[C@@H](CO)[C@H](O)[C@@H](O)[C@@H]2NC)[C@@H](N/C(N)=N\[H])[C@@H]1O` [Streptomycin], for which, in the experiment on S. aureus strain RN4220 (setting [5]), the minimum inhibitory concentration (MIC) was 25 µg/mL.

As for `CN(C)[C@@H]1C(=O)C(C(N)=O)=C(O)[C@@]2(O)C(=O)C3=C(O)c4c(O)cccc4[C@@](C)(O)[C@H]3C[C@@H]12` [Tetracyclin], the “MIC of the mutant” value in experiment [2] is 3.9 µg/mL. In addition, in the experiment on S. aureus strain RN4220 (Table 1, 37° C. overnight), the “MIC of wildtype RN4220” value stood at 0.1 µg/mL.

As to `CO[C@H]1/C=C/O[C@@]2(C)Oc3c(C)c(O)c4c(O)c(c(/C=N/N5CCN(C)CC5)c(O)c4c3C2=O)NC(=O)/C(C)=C\C=C\[C@H](C)[C@H](O)[C@@H](C)[C@@H](O)[C@@H](C)[C@H](OC(C)=O)[C@@H]1C` [Rifampicin], the minimal inhibitory concentration (MIC) came out at 250 µg/mL in experiment [2] and 0.008 µg/mL in the experiment with S. aureus strain RN4220 (setting [5]).

As to `CC1(C)S[C@@H]2[C@H](NC(=O)[C@H](N)c3ccccc3)C(=O)N2[C@H]1C(=O)O` [Ampicillin], the values for the MIC (in experiment [2]; in the experiment with S. aureus strain RN4220 (setting [5])) were 300 µg/mL and 0.2 µg/mL, respectively.

Consider `CC[C@H]1OC(=O)[C@H](C)[C@@H](O[C@H]2C[C@@](C)(OC)[C@@H](O)[C@H](C)O2)[C@H](C)[C@@H](O[C@@H]2O[C@H](C)C[C@H](N(C)C)[C@H]2O)[C@](C)(O)C[C@@H](C)C(=O)[C@H](C)[C@@H](O)[C@]1(C)O` [Erythromycin], for which the MIC in experiment [1] was found to be 0.8 µg/mL.

In the case of `CC(=O)NC[C@H]1CN(c2ccc(N3CCOCC3)c(F)c2)C(=O)O1` [linezolid], in experiment [3], the “microbial growth in the wells containing the ten resistant strains” value is listed as “suppressed the growth in all the wells”.

As for `CO[C@@H]1[C@@H](OC(N)=O)[C@@H](O)[C@H](Oc2ccc3c(O)c(NC(=O)c4ccc(O)c(CC=C(C)C)c4)c(=O)oc3c2C)OC1(C)C` [Novobiocin], the MIC was 12.5 µg/mL in experiment [2] and 0.05 µg/mL in the experiment with S. aureus strain RN4220 (setting [5]).

With `Cc1c2oc3c(C)ccc(C(=O)N[C@@H]4C(=O)N[C@H](C(C)C)C(=O)N5CCC[C@H]5C(=O)N(C)CC(=O)N(C)[C@@H](C(C)C)C(=O)O[C@@H]4C)c3nc-2c(C(=O)N[C@@H]2C(=O)N[C@H](C(C)C)C(=O)N3CCC[C@H]3C(=O)N(C)CC(=O)N(C)[C@@H](C(C)C)C(=O)O[C@@H]2C)c(N)c1=O` [Actinomycin D] (I: T[dV]P[Sar][NMeV] / II: T[dV]P[Sar][NMeV]; ester I:1-I:C, II:1-II:C; linker I:N-II:N via Actinocin(9to1)), the “MIC of the mutant” value in experiment [2] is 12.48 µg/mL. The “MIC of wildtype RN4220” value with S. aureus strain RN4220 (Table 1, 37° C. overnight) amounted to 1.56 µg/mL.

For the compound `CN[C@H](CC(C)C)C(=O)N[C@H]1C(=O)N[C@@H](CC(N)=O)C(=O)N[C@H]2C(=O)N[C@H]3C(=O)N[C@H](C(=O)N[C@H](C(=O)O)c4cc(O)cc(O)c4-c4cc3ccc4O)[C@H](O)c3ccc(c(Cl)c3)Oc3cc2cc(c3O[C@@H]2O[C@H](CO)[C@@H](O)[C@H](O)[C@H]2O[C@H]2C[C@](C)(N)[C@H](O)[C@H](C)O2)Oc2ccc(cc2Cl)[C@H]1O` [Vancomycin], the MIC came to 2000 µg/mL in experiment [2] and 1.56 µg/mL in the experiment on S. aureus strain RN4220 (setting [5]).
